The results in this text go back to patent US20110124501A1, “Active compound combinations” (Bayer CropScience AG, priority 2009, published 2011).

Where “and” joins values, the source holds several entries; their conditions need not be identical. Equal entries are not always repeated. Structures can show the parent of a compound that is named as a salt. Where two headings read alike, the source gives them in different places.

Experiment [1] has as its system Leptosphaeria nodorum. Description: Leptosphaeria nodorum test (wheat)/preventive. Format: in vivo. The settings on record: preventive, evaluated 8 days after inoculation.
Experiment [2] deals with Septoria tritici. Description: Septoria tritici-test (wheat)/preventive. It counts as in vivo. The settings on record: preventive, evaluated 21 days after inoculation.
Experiment [3] relates to Phytophthora infestans. Format: in vivo.
Experiment [4] deals with Botrytis cinerea. Description: Botrytis test (beans)/preventive.
Experimental: Botrytis Test (Beans)/Preventive
(§1) • Solvent: 24.5 parts by weight of acetone • 24.5 parts by weight of dimethylacetamide • Emulsifier: 1 part by weight of alkylaryl polyglycol ether
After the spray coating has dried on, 2 small pieces of agar covered with growth of Botrytis cinerea are placed on each leaf. The inoculated plants are placed in a darkened chamber at 20° C. and a relative atmospheric humidity of 100%.
2 days after the inoculation, the size of the lesions on the leaves is evaluated.
In experiment [5] the test system is Sphaerotheca fuliginea. Description: Sphaerotheca test (cucumbers)/preventive. It counts as in vivo.
Experiment [6] relates to Venturia inaequalis. Description: Venturia test (apples)/preventive.
Experimental: Venturia Test (Apples)/Preventive
as §1
After the spray coating has dried on, the plants are inoculated with an aqueous conidia suspension of the causal agent of apple scab (Venturia inaequalis) and then remain for 1 day in an incubation cabinet at approximately 20° C. and a relative atmospheric humidity of 100%.
The plants are then placed in a greenhouse at approximately 21° C. and a relative atmospheric humidity of approximately 90%.
The test is evaluated 10 days after the inoculation.
Experiment [7] relates to Pyrenophora teres. Description: Pyrenophora teres-test (barley)/preventive. It counts as in vivo. The settings on record: preventive, evaluated 8 days after inoculation.
For experiment [8], the system named is Alternaria solani. Description: Alternaria test (tomatoes)/preventive. It counts as in vivo.
Experiment [9] relates to Blumeria graminis fsp. hordei. Description: Blumeria test (barley)/preventive. Format: in vivo. An excerpt: After the spray coating has been dried, the plants are dusted with spores of Blumeria graminis fsp. hordei.
In experiment [10] the test system is Plasmopara viticola. Description: Plasmopara test (grapevines)/preventive. Format: in vivo.
For experiment [11], the system named is Puccinia triticina. Description: Puccinia triticina-test (wheat)/preventive. To be noted: preventive, evaluated 8 days after inoculation. It counts as in vivo.

`Fc1ccc([C@]2(Cn3cncn3)O[C@H]2c2ccccc2Cl)cc1` (racemic) [(1.12), epoxiconazole]: the “Efficacy in % found” value in experiment [1] (31.25 ppm a.i.) and in experiment [2] (62.5 ppm a.i.) was 71% in each case.

Regarding `C[C@@]1(c2ccc(Oc3ccccc3)cc2)OC(=O)N(Nc2ccccc2)C1=O` (racemic) [(3.6), famoxadone], in experiment [3] (application rate 0.4 ppm a.i.), the “Efficacy in % found” value was determined as 0%.

In the case of `CC1(C(=O)Nc2ccc(O)c(Cl)c2Cl)CCCCC1` [(1.16), fenhexamid], the “Efficacy in % found” value in [4] (application rate 10 ppm a.i.) is recorded as 0%.

For the molecule `O=c1c2cc(F)ccc2nc(-n2cncn2)n1-c1ccc(Cl)cc1Cl` [(1.19), fluquinconazole], the “Efficacy in % found” value is reported as 43% in experiment [1] (31.25 ppm a.i.), 86% in [2] (62.5 ppm a.i.) and 78% in experiment [5] (application rate 1 ppm a.i.).

Consider `Cn1cc(C(=O)Nc2ccc(F)cc2-c2ccc(Cl)c(Cl)c2)c(C(F)F)n1` [(2.2), bixafen], for which, in experiment [6] (application rate 1 ppm a.i.), the “Efficacy in % found” value worked out at 64%.

Regarding `O=C(NCCc1ncc(C(F)(F)F)cc1Cl)c1ccccc1C(F)(F)F` [(2.6), fluopyram], the “Efficacy in % found” value was found to be 80% in experiment [2] (31.25 ppm a.i.); 88% in [7] (31.25 ppm a.i.); 0% in [5] (application rate 4 ppm a.i.); 55% in experiment [8] (application rate 1 ppm a.i.); 28% in experiment [6] (application rate 2 ppm a.i.).

As to `CC(C)C1C2CCC1c1c(NC(=O)c3cn(C)nc3C(F)F)cccc12` (stereo not drawn) [(2.10), isopyrazam], the “Efficacy in % found” value in [8] (application rate 0.5 ppm a.i.) came out at 50%; in [6] (application rate 1 ppm a.i.), 49%.

Take `Cc1nn(C)c(F)c1C(=O)Nc1ccccc1C(C)CC(C)C` (stereo not drawn) [(2.19), penflufen]: the “Efficacy in % found” value in experiment [9] (application rate 125 ppm a.i.) is 67% and 56%; in experiment [5] (application rate 4 ppm a.i.), 0%; in experiment [8] (application rate 1 ppm a.i.), 30%; in experiment [6] (application rate 4 ppm a.i.), 0%.

With `CC(C)CC(C)c1sccc1NC(=O)c1cn(C)nc1C(F)(F)F` (stereo not drawn) [(2.20), penthiopyrad], the “Efficacy in % found” value in [8] (application rate 0.5 ppm a.i.) came to 53%; in [6] (application rate 2 ppm a.i.) it was 41%.

In the case of `Cn1cc(C(=O)Nc2ccccc2C2CC2C2CC2)c(C(F)F)n1` (stereo not drawn) [(2.21), sedaxane], the “Efficacy in % found” value was determined as 40% in experiment [8] (application rate 1 ppm a.i.) and 69% in experiment [6] (application rate 2 ppm a.i.).

With `Cn1cc(C(=O)Nc2ccccc2-c2cc(F)c(F)c(F)c2)c(C(F)F)n1` [(2.45), 3-(difluoromethyl)-1-methyl-N-(3′,4′,5′-trifluorobiphenyl-2-yl)-1H-pyrazole-4-carboxamide], in [5] (application rate 2 ppm a.i.), the “Efficacy in % found” value is 30%.

Consider `CO/C=C(/C(=O)OC)c1ccccc1Oc1cc(Oc2ccccc2C#N)ncn1` [(3.2), azoxystrobin], for which the “Efficacy in % found” value in experiment [1] (31.25 ppm a.i.) stood at 67%; in [1] (62.5 ppm a.i.), 86%; in [5] (application rate 1 ppm a.i.) it was 10%; in [8] (application rate 0.25 ppm a.i.), 50%.

For `Cc1ccc(-c2c(Cl)nc(C#N)n2S(=O)(=O)N(C)C)cc1` [(3.3), cyazofamid], in experiment [10] (application rate 0.4 ppm a.i.), the “Efficacy in % found” value came out at 0%.

Regarding `CSC1=N[C@@](C)(c2ccccc2)C(=O)N1Nc1ccccc1` [(3.7), fenamidone], the “Efficacy in % found” value in [3] (application rate 0.2 ppm a.i.) came to 0%.

Consider `CO/N=C(/C1=NOCCO1)c1ccccc1Oc1ncnc(Oc2ccccc2Cl)c1F` [(3.8), fluoxastrobin], for which the “Efficacy in % found” value is listed as 71% in experiment [1] (31.25 ppm a.i.), 71% in experiment [2] (62.5 ppm a.i.), 70% in experiment [8] (application rate 2 ppm a.i.) and 88% in [6] (application rate 0.5 ppm a.i.).

In the case of `COC(=O)N(OC)c1ccccc1COc1ccn(-c2ccc(Cl)cc2)n1` [(3.13), pyraclostrobin], the “Efficacy in % found” value in experiment [11] (62.5 ppm a.i.) is 63%; in experiment [1] (31.25 ppm a.i.) it was 57%; in [5] (application rate 1 ppm a.i.) it was 0%.

On to `CON=C(C(=O)OC)c1ccccc1CON=C(C)c1cccc(C(F)(F)F)c1` [(3.17), trifloxystrobin], for which the “Efficacy in % found” value in experiment [11] (62.5 ppm a.i.) was 78%; in [7] (62.5 ppm a.i.) it was 75%; in experiment [5] (application rate 2 ppm a.i.), 27%; in [8] (application rate 2 ppm a.i.), 60%.

`CCC(C)(NC(=O)c1cc(Cl)c(C)c(Cl)c1)C(=O)CCl` (stereo not drawn) [(4.9), zoxamide]: the “Efficacy in % found” value in [10] (application rate 0.4 ppm a.i.) was 0%.

As to `N#Cc1c(Cl)c(Cl)c(Cl)c(C#N)c1Cl` [(5.4), chlorothalonil], the “Efficacy in % found” value in experiment [8] (application rate 50 ppm a.i.) was found to be 24%; in experiment [6] (application rate 25 ppm a.i.), 83%.

For `O=C1c2ccccc2C(=O)N1SC(Cl)(Cl)Cl` [(5.9), folpet], in [4] (application rate 12.5 ppm a.i.), the “Efficacy in % found” value was 11%.

On to `[Cl-].[Cu+2].[Cu+2].[OH-].[OH-].[OH-]` [(5.15), copper oxychloride], for which the “Efficacy in % found” value in [8] (application rate 50 ppm a.i.) turned out to be 41%; in experiment [6] (application rate 50 ppm a.i.), 40%.

Take `[Cu+2].[OH-].[OH-]` [(5.16), copper hydroxide]: the figures for the “Efficacy in % found” value in experiment [8] (application rate 50 ppm a.i.) and in experiment [6] (application rate 25 ppm a.i.) were 47% and 57%, respectively.

With `Cc1cc(C)nc(Nc2ccccc2)n1` [(7.7), pyrimethanil], the “Efficacy in % found” value in experiment [4] (application rate 50 ppm a.i.) is on record as 11%.

On to `COc1ccc(C(=CC(=O)N2CCOCC2)c2ccc(Cl)cc2)cc1OC` [(9.2), dimethomorph], for which the “Efficacy in % found” value in [10] (application rate 0.2 ppm a.i.) amounted to 0%.

Take `Cc1ccc(C(C)NC(=O)[C@@H](NC(=O)OC(C)C)C(C)C)cc1` (stereo partly drawn) [(9.4), iprovalicarb]: the “Efficacy in % found” value in [10] (application rate 0.4 ppm a.i.) is given as 0%.

With `C#CCOc1ccc(CCNC(=O)C(OCC#C)c2ccc(Cl)cc2)cc1OC` (stereo not drawn) [(9.5), mandipropamid], the results for the “Efficacy in % found” value in experiment [10] (application rate 0.1 ppm a.i.) and in experiment [10] (application rate 0.2 ppm a.i.) were 14% and 25%, respectively.

`CCCOC(=O)NCCCN(C)C` [(10.11), propamocarb-hydrochloride]: in experiment [3] (application rate 10 ppm a.i.), the “Efficacy in % found” value worked out at 0%.

`COC(=O)[C@@H](C)N(C(=O)Cc1ccccc1)c1c(C)cccc1C` [(12.2), benalaxyl-M]: the “Efficacy in % found” value in [10] (application rate 0.2 ppm a.i.) and in experiment [10] (application rate 0.4 ppm a.i.) was 0% in each case.

`COCC(=O)N(c1c(C)cccc1C)[C@H](C)C(=O)OC` [(12.10), metalaxyl-M]: in experiment [10] (application rate 0.4 ppm a.i.), the “Efficacy in % found” value is 57%.

As to `O=[N+]([O-])c1cc(C(F)(F)F)c(Cl)c([N+](=O)[O-])c1Nc1ncc(C(F)(F)F)cc1Cl` [(14.2), fluazinam], the “Efficacy in % found” value in [3] (application rate 0.5 ppm a.i.) came to 0%.

For the molecule `CCCCCCCCc1c(CC)nc2ncnn2c1N` [(15.1), ametoctradin], the “Efficacy in % found” value in experiment [3] (application rate 0.5 ppm a.i.) came out at 0%.

On to `CCNC(=O)NC(=O)/C(C#N)=N/OC` [(15.7), cymoxanil], for which the “Efficacy in % found” value in [3] (application rate 1 ppm a.i.) amounted to 0%.

As to `O=C(NCc1ncc(C(F)(F)F)cc1Cl)c1c(Cl)cccc1Cl` [(15.17), fluopicolide], the “Efficacy in % found” value in experiment [10] (application rate 0.4 ppm a.i.) stood at 43%.

With `CCO[PH](=O)O` [(15.20), fosetyl-Al], the “Efficacy in % found” value in [3] (application rate 10 ppm a.i.) is on record as 3%.

Take `C#CCCOC(=O)Nc1cccc(CO/N=C(/c2ccccc2)c2nnnn2C)n1` [(15.96), but-3-yn-1-yl {6-[({[(Z)-(1-methyl-1H-tetrazol-5-yl)(phenyl)methylene]amino}oxy)methyl]pyridin-2-yl}carbamate]: the “Efficacy in % found” value in experiment [3] (application rate 0.2 ppm a.i.) was determined as 53%; in experiment [10] (application rate 0.4 ppm a.i.) it was 46%.

Regarding `O=C(OCc1c(F)cccc1Cl)c1csc(C2CCN(C(=O)Cn3nc(C(F)F)cc3C(F)F)CC2)n1` [(I-16)], the “Efficacy in % found” value in experiment [3] (application rate 0.2 ppm a.i.) is 70%; in experiment [3] (application rate 0.4 ppm a.i.), 61% and 74%; in experiment [11] (500 ppm a.i.), 13%; in experiment [11] (1000 ppm a.i.), 38%; in experiment [1] (1000 ppm a.i.), 0%; in experiment [4] (application rate 50 ppm a.i.), 0%. Moreover, the “Efficacy in % found” value in experiment [4] (application rate 200 ppm a.i.) is 0%; in experiment [9] (application rate 1000 ppm a.i.), 0%; in [7] (500 ppm a.i.), 0%; in experiment [7] (1000 ppm a.i.), 25% and 13%; in experiment [5] (application rate 25 ppm a.i.), 30%; in experiment [5] (application rate 50 ppm a.i.), 30%. Besides, the “Efficacy in % found” value in experiment [8] (application rate 25 ppm a.i.) was found to be 30%; in experiment [8] (application rate 200 ppm a.i.), 47%; in experiment [10] (application rate 0.2 ppm a.i.) it was 29%; in [10] (application rate 0.4 ppm a.i.), 0%; in experiment [6] (application rate 200 ppm a.i.) it was 33%.

Consider boscalid [(2.3)], for which the results for the “Efficacy in % found” value in experiment [11] (250 ppm a.i.) and in experiment [11] (500 ppm a.i.) were 38% and 56%, respectively.

Take fenpiclonil [(13.1)]: the entries for the “Efficacy in % found” value in [1] (500 ppm a.i.) and in experiment [7] (500 ppm a.i.) were 71% and 88%, respectively.

fludioxonil [(13.2)]: the “Efficacy in % found” value in experiment [1] (250 ppm a.i.) is 43%; in [4] (application rate 10 ppm a.i.) it was 15%; in experiment [7] (125 ppm a.i.) it was 88%.

Take mancozeb [(5.19)]: the “Efficacy in % found” value in experiment [8] (application rate 12.5 ppm a.i.) was 18%; in experiment [8] (application rate 50 ppm a.i.) it was 76%; in experiment [6] (application rate 12.5 ppm a.i.), 53%.

Regarding “phosphorous acid and its salts [(15.62)]”, the “Efficacy in % found” value in experiment [3] (application rate 10 ppm a.i.) was 19%.

For the molecule propiconazole [(1.40)], the “Efficacy in % found” value in experiment [11] (125 ppm a.i.) and in experiment [5] (application rate 2 ppm a.i.) was 78% in each case.

Turning to propineb [(5.23)], in experiment [8] (application rate 50 ppm a.i.), the “Efficacy in % found” value is recorded as 53%.

For prothioconazole [(1.41)], the “Efficacy in % found” value was 43% in experiment [1] (62.5 ppm a.i.), 86% in experiment [2] (125 ppm a.i.) and 37% in experiment [5] (application rate 0.5 ppm a.i.).

In the case of spiroxamine [(1.46)], the entries for the “Efficacy in % found” value in experiment [11] (500 ppm a.i.) and in [9] (application rate 250 ppm a.i.) were 56% and 94%, respectively.

tebuconazole [(1.47)]: the “Efficacy in % found” value in experiment [7] (125 ppm a.i.) turned out to be 38%; in [5] (application rate 4 ppm a.i.), 67%; in experiment [6] (application rate 4 ppm a.i.) it was 43%.

For triadimenol [(1.51)], the “Efficacy in % found” value in experiment [1] (250 ppm a.i.) is 50% and 43%.
